These results are taken from ChEMBL document CHEMBL1914304 (J Med Chem, 2011).

The structures appear in SMILES notation. Where only a bound is given, the exact number is not on record here.

One data set relates to HEK293. Description: Cytotoxicity against human HEK293 cells after 72 hrs by luminescence assay. It is filed as cell-based. Conditions: hek293, 72 h.
The next data set deals with Raji. Description: Cytotoxicity against human Raji cells after 72 hrs by luminescence assay. It is filed as cell-based.
A further data set concerns HepG2. The data set can be described thus: Cytotoxicity against human HepG2 cells after 72 hrs by luminescence assay. It is filed as cell-based. Conditions: hepg2, 72 h.
The subject of the next data set is BJ. The data set can be described thus: Cytotoxicity against human BJ cells after 72 hrs by luminescence assay. It is filed as cell-based.
Data set [1] is described as follows: Selectivity ratio of EC50 for human HepG2 cells to EC50 for Plasmodium falciparum.

In the case of `Cl.O=C(CCc1ccccc1)c1ccccc1OCC(O)CN1CCC(Cc2ccccc2)CC1` (racemic), the Activity entry with HEK293, in the data set with Raji, with HepG2 and in the data set on BJ was “Non-toxic” in each case. The selectivity ratio in data set [1] was above 10.

`Cl.O=C(CCc1ccccc1)c1ccccc1OCC(O)CN1CCOCC1` (racemic): the Activity entry in the data set with HEK293, with Raji, in the data set with HepG2 and in the data set on BJ was “Non-toxic” each time. In addition, in data set [1], the selectivity ratio was above 10.

Consider `Cl.O=C(CCc1ccc(F)cc1)c1cc(F)ccc1OCC(O)CN1CCN(Cc2ccccc2)CC1` (racemic), for which the Activity result in the data set with HEK293, in the data set with Raji, with HepG2 and in the data set with BJ was “Non-toxic” throughout. Moreover, the selectivity ratio in data set [1] was above 10.

For the molecule `CC(C)N(CC(O)COc1ccccc1C(=O)CCc1ccc(F)cc1)c1ccccc1.Cl` (racemic), the Activity result in the data set with HEK293, in the data set on Raji, with HepG2 and in the data set with BJ was “Non-toxic” in each case. For the same molecule, the selectivity ratio in data set [1] was above 10.

In the case of `Cl.Nc1ccc(N2CCN(CC(O)COc3ccc(F)cc3C(=O)CCc3ccc(F)cc3)CC2)cc1` (racemic), the Activity entry in the data set on HEK293, in the data set on Raji, in the data set with HepG2 and in the data set on BJ was “Non-toxic” throughout. Besides, the selectivity ratio in data set [1] is above 10.

For the molecule `COc1ccccc1N1CCN(CC(O)COc2ccccc2C(=O)CCc2ccccc2)CC1.Cl` (racemic), the Activity entry with HEK293, with Raji, in the data set on HepG2 and with BJ was “Non-toxic” in each case. In addition, the selectivity ratio in data set [1] is above 10.

Consider `Cl.O=C(CCc1ccccc1)c1cc(F)ccc1OCC(O)CN1CCN(C(=O)c2ccccc2)CC1` (racemic), for which the Activity result with HEK293, in the data set on Raji, in the data set on HepG2 and with BJ was “Non-toxic” in each case. For the same molecule, the selectivity ratio in data set [1] was above 10.

Take `Cl.O=C(CCc1ccc(F)cc1)c1cc(F)ccc1OCC(O)CN1CCN(C(=O)c2ccccc2)CC1` (racemic): the Activity entry in the data set with HEK293, in the data set with Raji, with HepG2 and in the data set on BJ was “Non-toxic” each time. Moreover, the selectivity ratio in data set [1] is above 10.

As for `Cl.O=C(CCc1ccc(F)cc1)c1ccccc1OCC(O)CN1CCC(O)(Cc2ccccc2)CC1` (racemic), the Activity result with HEK293, in the data set on Raji, in the data set with HepG2 and with BJ was “Non-toxic” each time. In addition, the selectivity ratio in data set [1] is above 10.

Turning to `Cc1ccccc1N1CCN(CC(O)COc2ccc(F)cc2C(=O)CCc2ccc(F)cc2)CC1.Cl` (racemic), the Activity entry with HEK293, in the data set with Raji, with HepG2 and in the data set with BJ was “Non-toxic” in each case. Moreover, in data set [1], the selectivity ratio is above 10.

Regarding `Cl.O=C(CCc1ccccc1)c1ccccc1OCC(O)CN1CCN(c2ccc(Cl)c(Cl)c2)CC1` (racemic), the Activity entry with HEK293, in the data set with Raji, in the data set on HepG2 and with BJ was “Non-toxic” in each case. Further, the selectivity ratio in data set [1] is above 10.

Regarding `Cl.O=C(CCc1ccccc1)c1cc(F)ccc1OCC(O)CN1CCN(c2ccccc2F)CC1` (racemic), the Activity entry with HEK293, in the data set with Raji, in the data set on HepG2 and with BJ was “Non-toxic” each time. The selectivity ratio in data set [1] was above 10.

Regarding `Cl.O=C(CCc1ccc(F)cc1)c1cc(F)ccc1OCC(O)CN1CCN(c2ccc(F)cc2)CC1` (racemic), the Activity entry with HEK293, in the data set with Raji, with HepG2 and in the data set on BJ was “Non-toxic” throughout. Also, the selectivity ratio in data set [1] was above 10.

On to `Cl.O=C(CCc1ccc(F)cc1)c1cc(F)ccc1OCC(O)CN1CCN(c2ccc(O)cc2)CC1` (racemic), for which the Activity result in the data set with HEK293, with Raji, in the data set on HepG2 and with BJ was “Non-toxic” in each case. Besides, the selectivity ratio in data set [1] was above 10.

Consider `CN(CCc1ccccc1)CC(O)COc1ccc(F)cc1C(=O)CCc1ccc(F)cc1.Cl` (racemic), for which the Activity entry with HEK293, in the data set on Raji, in the data set on HepG2 and in the data set on BJ was “Non-toxic” in each case. The selectivity ratio in data set [1] is above 10.

Turning to `Cl.O=C(CCc1ccc(F)cc1)c1ccccc1OCC(O)Cn1ccc2ccccc21` (racemic), the Activity result with HEK293, with Raji, in the data set with HepG2 and in the data set with BJ was “Non-toxic” each time. The selectivity ratio in data set [1] is above 10.

As for `Cl.O=C(CCc1ccccc1)c1cc(F)ccc1OCC(O)CN1CCN(c2ccc(Cl)cc2)CC1` (racemic), the Activity entry with HEK293, with Raji, in the data set with HepG2 and in the data set on BJ was “Non-toxic” each time. In data set [1], the selectivity ratio is above 10.

Turning to `Cl.O=C(CCc1ccc(F)cc1)c1cc(F)ccc1OCC(O)CNCc1ccccc1` (racemic), the Activity entry with HEK293, with Raji, in the data set with HepG2 and in the data set with BJ was “Non-toxic” throughout. The selectivity ratio in data set [1] was above 10.

On to `Cc1cccc(N(CC(O)COc2ccc(F)cc2C(=O)CCc2ccccc2)c2ccccc2)c1.Cl` (racemic), for which the Activity result in the data set on HEK293, in the data set on Raji, with HepG2 and with BJ was “Non-toxic” throughout. Moreover, the selectivity ratio in data set [1] is above 10.

With `Cl.O=C(CCc1ccc(F)cc1)c1ccccc1OCC(O)CN1CCC(O)(c2ccc(Cl)cc2)CC1` (racemic), the Activity result in the data set with HEK293, in the data set with Raji, in the data set on HepG2 and in the data set on BJ was “Non-toxic” throughout. For the same molecule, the selectivity ratio in data set [1] is above 10.

With `CN1CCN(CC(O)COc2ccccc2C(=O)CCc2ccccc2)CC1.Cl` (racemic), the Activity result with HEK293, with Raji, in the data set on HepG2 and in the data set with BJ was “Non-toxic” throughout. Also, in data set [1], the selectivity ratio is above 10.

With `Cl.O=C(CCc1ccccc1)c1cc(F)ccc1OCC(O)CNCc1ccccc1` (racemic), the Activity result in the data set with HEK293, with Raji, in the data set on HepG2 and in the data set with BJ was “Non-toxic” in each case. Also, the selectivity ratio in data set [1] is above 10.
